Measurements taken from patent publication US8729091B2, “4-phenoxy-nicotinamide or 4-phenoxy-pyrimidine-5-carboxamide compounds” (Hoffmann-La Roche Inc., priority 2010, dated 2014).

Biological target: T1, human GPBAR1 receptor (Homo sapiens, UniProt Q8TDU6)
T1 construct: expressed in transfected cells
T1 sequence (Q8TDU6 1-330): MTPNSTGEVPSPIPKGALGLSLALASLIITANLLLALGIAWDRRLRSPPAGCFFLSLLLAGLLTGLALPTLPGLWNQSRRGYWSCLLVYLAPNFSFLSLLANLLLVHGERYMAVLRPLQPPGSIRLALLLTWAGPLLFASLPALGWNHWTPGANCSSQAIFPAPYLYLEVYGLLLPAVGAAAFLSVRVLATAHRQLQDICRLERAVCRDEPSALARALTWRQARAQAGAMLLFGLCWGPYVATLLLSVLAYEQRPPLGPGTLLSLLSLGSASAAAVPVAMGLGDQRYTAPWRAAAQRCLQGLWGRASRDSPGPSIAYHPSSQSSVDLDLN
Assay: functional cAMP assay in CHO-dhfr(minus) cells expressing human GPBAR1 receptors
Type: cell-based
Conditions: cAMP increase (TR-FRET) in CHO-dhfr(minus) cells expressing human GPBAR1; compounds incubated 30 min at 30° C.
Protocol: The final clone was verified by DNA sequence analysis. The plasmid was transfected into CHO cells deficient in dihydrofolate reductase activity (CHO-dhfr−) using Lipofectamine plus (Invitrogen). Clones were isolated in limited dilution conditions and identified by activities in the cAMP assay using lithocholic acid as agonist.
The growth medium was exchanged with Krebs Ringer Bicarbonate buffer with 1 mM IBMX and incubated at 30° C. for 30 min. Compounds were added to a final assay volume of 100 μl and incubated for 30 min at 30° C. […] The time-resolved energy transfer is measured by a TRF reader (Evotec Technologies GmbH, Hamburg Germany), equipped with a ND:YAG laser as excitation source.
EC50 values were determined using Activity Base analysis (ID Business Solution, Limited). […] Specificity for GPBAR1 was tested in non-transfected CHO cells in the same assay as above.

Work on `COC(=O)c1ccc(NC(=O)c2cc(Cl)c(Oc3ccncc3C(=O)N3CCN(C4CC4)c4ccccc43)cc2Cl)cc1` [Example 43, 4-{2,5-Dichloro-4-[3-(4-cyclopropyl-3,4-dihydro-2H-quinoxaline-1-carbonyl)-pyridin-4-yloxy]-benzoylamino}-benzoic acid methyl ester] yielded an EC50 of 100 nM.

In the case of `O=C(O)c1ccc(NC(=O)c2cc(Cl)c(Oc3ccncc3C(=O)N3CCN(C4CC4)c4ccccc43)cc2Cl)cc1` [Example 44, 4-{2,5-Dichloro-4-[3-(4-cyclopropyl-3,4-dihydro-2H-quinoxaline-1-carbonyl)-pyridin-4-yloxy]-benzoylamino}-benzoic acid], the EC50 is reported as 20 nM.

Compound `CCOC(=O)c1sc(NC(=O)c2cc(Cl)c(Oc3ccncc3C(=O)N3CCN(C4CC4)c4ccccc43)cc2Cl)nc1C` [Example 45, 2-{2,5-Dichloro-4-[3-(4-cyclopropyl-3,4-dihydro-2H-quinoxaline-1-carbonyl)-pyridin-4-yloxy]-benzoylamino}-4-methyl-thiazole-5-carboxylic acid ethyl ester] has an EC50 of 600 nM.

For `Cc1nc(NC(=O)c2cc(Cl)c(Oc3ccncc3C(=O)N3CCN(C4CC4)c4ccccc43)cc2Cl)sc1C(=O)O` [Example 46, 2-{2,5-Dichloro-4-[3-(4-cyclopropyl-3,4-dihydro-2H-quinoxaline-1-carbonyl)-pyridin-4-yloxy]-benzoylamino}-4-methyl-thiazole-5-carboxylic acid], the EC50 was 30 nM.

`CCOC(=O)c1nnc(NC(=O)c2cc(Cl)c(Oc3ccncc3C(=O)N3CCN(C4CC4)c4ccccc43)cc2Cl)s1` [Example 47, 5-{2,5-Dichloro-4-[3-(4-cyclopropyl-3,4-dihydro-2H-quinoxaline-1-carbonyl)-pyridin-4-yloxy]-benzoylamino}-[1,3,4]thiadiazole-2-carboxylic acid ethyl ester] showed an EC50 of 100 nM.

Compound `O=C(Nc1nncs1)c1cc(Cl)c(Oc2ccncc2C(=O)N2CCN(C3CC3)c3ccccc32)cc1Cl` [Example 48, 2,5-Dichloro-4-[3-(4-cyclopropyl-3,4-dihydro-2H-quinoxaline-1-carbonyl)-pyridin-4-yloxy]-N-[1,3,4]thiadiazol-2-yl-benzamide] has an EC50 of 200 nM.

`O=C(NCCO)c1cc(Cl)c(Oc2ccncc2C(=O)N2CCN(C3CC3)c3ccccc32)cc1Cl` [Example 49, 2,5-Dichloro-4-[3-(4-cyclopropyl-3,4-dihydro-2H-quinoxaline-1-carbonyl)-pyridin-4-yloxy]-N-(2-hydroxy-ethyl)-benzamide] was tested, and the EC50 was 40 nM.

With `O=C(c1cc(Cl)c(Oc2ccncc2C(=O)N2CCN(C3CC3)c3ccccc32)cc1Cl)N(CCO)CCO` [Example 50, 2,5-Dichloro-4-[3-(4-cyclopropyl-3,4-dihydro-2H-quinoxaline-1-carbonyl)-pyridin-4-yloxy]-N,N-bis-(2-hydroxy-ethyl)-benzamide] the EC50 was 1100 nM.

With `O=C(NC(CO)CO)c1cc(Cl)c(Oc2ccncc2C(=O)N2CCN(C3CC3)c3ccccc32)cc1Cl` [Example 51, 2,5-Dichloro-4-[3-(4-cyclopropyl-3,4-dihydro-2H-quinoxaline-1-carbonyl)-pyridin-4-yloxy]-N-(2-hydroxy-1-hydroxymethyl-ethyl)-benzamide] the EC50 was 300 nM.

In the case of `NC(=O)c1cc(Cl)c(Oc2ccncc2C(=O)N2CCN(C3CC3)c3ccccc32)cc1Cl` [Example 52, 2,5-Dichloro-4-[3-(4-cyclopropyl-3,4-dihydro-2H-quinoxaline-1-carbonyl)-pyridin-4-yloxy]-benzamide], the EC50 is reported as 10 nM.

With `NC(=O)CCNC(=O)c1cc(Cl)c(Oc2ccncc2C(=O)N2CCN(C3CC3)c3ccccc32)cc1Cl` [Example 53, N-(2-Carbamoyl-ethyl)-2,5-dichloro-4-[3-(4-cyclopropyl-3,4-dihydro-2H-quinoxaline-1-carbonyl)-pyridin-4-yloxy]-benzamide] the EC50 was 100 nM.

For `COC(=O)CCC(CCC(=O)OC)NC(=O)c1cc(Cl)c(Oc2ccncc2C(=O)N2CCN(C3CC3)c3ccccc32)cc1Cl` [Example 54, 4-{2,5-Dichloro-4-[3-(4-cyclopropyl-3,4-dihydro-2H-quinoxaline-1-carbonyl)-pyridin-4-yloxy]-benzoylamino}-heptanedioic acid dimethyl ester], the EC50 was 300 nM.

`O=C(c1cnccc1Oc1cc(Cl)c(CO)cc1Cl)N1CCN(C2CC2)c2ccccc21` [Example 55, (4-Cyclopropyl-3,4-dihydro-2H-quinoxalin-1-yl)-[4-(2,5-dichloro-4-hydroxymethyl-phenoxy)-pyridin-3-yl]-methanone] gave an EC50 of 3 nM.

`N#Cc1cc(Cl)c(Oc2ccncc2C(=O)N2CCN(C3CC3)c3ccccc32)cc1Cl` [Example 56, 2,5-Dichloro-4-[3-(4-cyclopropyl-3,4-dihydro-2H-quinoxaline-1-carbonyl)-pyridin-4-yloxy]-benzonitrile] gave an EC50 of 3 nM.

In the case of `O=C(c1cnccc1Oc1cc(Cl)c(O)cc1Cl)N1CCN(C2CC2)c2ccccc21` [Example 57, (4-Cyclopropyl-3,4-dihydro-2H-quinoxalin-1-yl)-[4-(2,5-dichloro-4-hydroxy-phenoxy)-pyridin-3-yl]-methanone], the EC50 is reported as 10 nM.

With `CCOC(=O)COc1cc(Cl)c(Oc2ccncc2C(=O)N2CCN(C3CC3)c3ccccc32)cc1Cl` [Example 58, {2,5-Dichloro-4-[3-(4-cyclopropyl-3,4-dihydro-2H-quinoxaline-1-carbonyl)-pyridin-4-yloxy]-phenoxy}-acetic acid ethyl ester] the EC50 was 30 nM.

Work on `O=C(O)COc1cc(Cl)c(Oc2ccncc2C(=O)N2CCN(C3CC3)c3ccccc32)cc1Cl` [Example 59, {2,5-Dichloro-4-[3-(4-cyclopropyl-3,4-dihydro-2H-quinoxaline-1-carbonyl)-pyridin-4-yloxy]-phenoxy}-acetic acid] yielded an EC50 of 500 nM.

Compound `CCOC(=O)C(C)(C)Oc1cc(Cl)c(Oc2ccncc2C(=O)N2CCN(C3CC3)c3ccccc32)cc1Cl` [Example 60, 2-{2,5-Dichloro-4-[3-(4-cyclopropyl-3,4-dihydro-2H-quinoxaline-1-carbonyl)-pyridin-4-yloxy]-phenoxy}-2-methyl-propionic acid ethyl ester] has an EC50 of 200 nM.

Compound `CC(C)(Oc1cc(Cl)c(Oc2ccncc2C(=O)N2CCN(C3CC3)c3ccccc32)cc1Cl)C(=O)O` [Example 61, 2-{2,5-Dichloro-4-[3-(4-cyclopropyl-3,4-dihydro-2H-quinoxaline-1-carbonyl)-pyridin-4-yloxy]-phenoxy}-2-methyl-propionic acid] has an EC50 of 400 nM.

In the case of `O=C(c1cnccc1Oc1cc(Cl)c(OCCO)cc1Cl)N1CCN(C2CC2)c2ccccc21` [Example 62, (4-Cyclopropyl-3,4-dihydro-2H-quinoxalin-1-yl)-{4-[2,5-dichloro-4-(2-hydroxy-ethoxy)-phenoxy]-pyridin-3-yl}-methanone], the EC50 is reported as 12 nM.

Work on `Cc1cc(Oc2cc(Cl)ccc2Cl)c(C(=O)N2CCN(C3CC3)c3ccccc32)cn1` [Example 63, (4-Cyclopropyl-3,4-dihydro-2H-quinoxalin-1-yl)-[4-(2,5-dichloro-phenoxy)-6-methyl-pyridin-3-yl]-methanone] yielded an EC50 of 1 nM.

`Cc1cc(Oc2cc(Cl)c(Br)cc2Cl)c(C(=O)N2CCN(C3CC3)c3ccccc32)cn1` [Example 64, [4-(4-Bromo-2,5-dichloro-phenoxy)-6-methyl-pyridin-3-yl]-(4-cyclopropyl-3,4-dihydro-2H-quinoxalin-1-yl)-methanone] was tested, and the EC50 was 20 nM.

`COC(=O)c1cc(Cl)c(Oc2cc(C)ncc2C(=O)N2CCN(C3CC3)c3ccccc32)cc1Cl` [Example 65, 2,5-Dichloro-4-[5-(4-cyclopropyl-3,4-dihydro-2H-quinoxaline-1-carbonyl)-2-methyl-pyridin-4-yloxy]-benzoic acid methyl ester] gave an EC50 of 20 nM.

`Cc1cc(Oc2cc(Cl)c(C(=O)O)cc2Cl)c(C(=O)N2CCN(C3CC3)c3ccccc32)cn1` [Example 66, 2,5-Dichloro-4-[5-(4-cyclopropyl-3,4-dihydro-2H-quinoxaline-1-carbonyl)-2-methyl-pyridin-4-yloxy]-benzoic acid] was tested, and the EC50 was 300 nM.

Compound `CCOC(=O)CCNC(=O)c1cc(Cl)c(Oc2cc(C)ncc2C(=O)N2CCN(C3CC3)c3ccccc32)cc1Cl` [Example 67, 3-{2,5-Dichloro-4-[5-(4-cyclopropyl-3,4-dihydro-2H-quinoxaline-1-carbonyl)-2-methyl-pyridin-4-yloxy]-benzoylamino}-propionic acid ethyl ester] has an EC50 of 20 nM.

In the case of `Cc1cc(Oc2cc(Cl)c(C(=O)NCCC(=O)O)cc2Cl)c(C(=O)N2CCN(C3CC3)c3ccccc32)cn1` [Example 68, 3-{2,5-Dichloro-4-[5-(4-cyclopropyl-3,4-dihydro-2H-quinoxaline-1-carbonyl)-2-methyl-pyridin-4-yloxy]-benzoylamino}-propionic acid], the EC50 is reported as 200 nM.

For `COC(=O)CNC(=O)c1cc(Cl)c(Oc2cc(C)ncc2C(=O)N2CCN(C3CC3)c3ccccc32)cc1Cl` [Example 69, {2,5-Dichloro-4-[5-(4-cyclopropyl-3,4-dihydro-2H-quinoxaline-1-carbonyl)-2-methyl-pyridin-4-yloxy]-benzoylamino}-acetic acid methyl ester], the EC50 was 40 nM.
